According to US9439875B2, “Anxiolytic effect of pterostilbene” (The United States of America, as represented by The …, priority 2011, dated 2016):
Several values for one entry are separate records, joined by “and”; a condition that tells them apart may be missing. Equal values may be shown once. Entries after “also recorded” stand apart in the source; their conditions may differ. Read-outs that look alike come from different tables or passages of the source.

Tests used:
Swiss Webster mice = assay: Spontaneous motor (locomotor) activity; assay type: in vivo, mouse
Description: To measure spontaneous motor activity, adult Swiss Webster mice (n=8-10/group) were administered with pterostilbene by oral gavage. Each mouse was then placed in the locomotor chamber and acclimated in the Plexiglas enclosure for 30 min. After the 30 min acclimation period, locomotor activity was measured for 30 min using an automated activity monitoring system (San Diego Instruments, CA, USA). Total activity was expressed as the total number of interruptions of 16 cell photobeams per chamber.

[1] = in vivo; cited from earlier work
[2] = Prefrontal cortex level of pterostilbene by GC-MS; assay type: in vivo, mouse; conditions: all the doses administered (1-10 mg/kg p.o.)
Description: (§1) After the EPM session, blood samples were taken from each mouse by submandibular vein puncture in heparinized blood collection vials. Mice were then sacrificed and brains quickly removed. Their prefrontal cortex (PFC) and hippocampus were dissected out on ice, and immediately frozen in liquid nitrogen and stored at −80° C. until further processing. Blood samples were centrifuged at 2000 rpm at 4° C. for 20 min to get the plasma as supernatant. The plasma samples were stored at −80° C. until used.
Hippocampus tissues were kept at −80° C. until time of extraction. Hippocampus (left and right) from 2-3 animals was combined in an Eppendorf tube, and processed as one sample. […]
The nitrogen-dried samples (plasma and brain tissue extracts) were treated with 30 μL of a 1:1 mixture of N,O-bis[trimethylsilyl]trifluoroacetamide and dimethylformamide (Pierce Biotechnology, Inc., Rockford, Ill.) and heated at 70° C. for 40 min. The derivatized samples were analyzed for levels of pterostilbene using a JEOL GCMate II Instrument (JEOL USA Inc., Peabody, Mass.) equipped with a J&W DB-5 capillary column (0.25 mm internal diameter, 0.25 μm film thickness, and 30 m length; Agilent Technologies, Foster City, Calif.). […] Quantitation of pterostilbene was done using an external standard of a synthetic sample of pterostilbene previously characterized for structure and purity.

[3] = Plasma level of pterostilbene by GC-MS; assay type: in vivo; conditions: mouse, after EPM session; for concentration at 65 min: Swiss Webster, plasma, oral, read-out: Pterostilbene level in the plasma (± SD)
Description: as §1
Plasma were kept at −80° C., and thawed on ice prior to extraction. Plasma were treated with β-glucuronidase, to hydrolyze any glucuronidated pterostilbene, following published procedures (Remsberg et al., supra). Briefly, 50 μL plasma (from each animal) was transferred to an Eppendorf tube, and 60 μL of β-glucuronidase solution (5000 U/mL potassium phosphate buffer, 75 mM, pH 6.8 at 37° C.) was added. The mixture was vortex-mixed then incubated at 37° C. while shaking at 750 rpm for 20 hrs. Thereafter, ice-cold HPLC grade acetonitrile was added, vortex-mixed, and centrifuged for 5 min at 5000 rpm, 4° C. The supernatant was collected, and dried under a stream of nitrogen. The dried supernatant was used for GC-MS analysis.
(§2) The nitrogen-dried samples (plasma and brain tissue extracts) were treated with 30 μL of a 1:1 mixture of N,O-bis[trimethylsilyl]trifluoroacetamide and dimethylformamide (Pierce Biotechnology, Inc., Rockford, Ill.) and heated at 70° C. for 40 min. The derivatized samples were analyzed for levels of pterostilbene using a JEOL GCMate II Instrument (JEOL USA Inc., Peabody, Mass.) equipped with a J&W DB-5 capillary column (0.25 mm internal diameter, 0.25 μm film thickness, and 30 m length; Agilent Technologies, Foster City, Calif.). […] The carrier gas was ultrahigh purity helium, at 1 mL/min flow rate. The injection port, GC-MS interface, and ionization chamber were kept at 250, 230, and 230° C., respectively. The volume of injection was 2 μL (splitless injection). The mass spectrum was acquired in the positive, selected ion-monitoring mode (m/z 328, 313, and 297); electron impact 70 eV. GC-MS analyses were in duplicates. The retention time of pterostilbene was 10.2 min. Quantitation of pterostilbene was done using an external standard of a synthetic sample of pterostilbene previously characterized for structure and purity.

[4] = Hippocampus level of pterostilbene by GC-MS; assay type: in vivo, mouse; conditions: for Pterostilbene level in the hippocampus (± SD): mouse
Description: as §1
Hippocampus tissues were kept at −80° C. until time of extraction. Hippocampus (left and right) from 2-3 animals was combined in an Eppendorf tube, and processed as one sample. To the tube was added 200 μL phosphate buffer (0.2M NaH2PO4:0.2M Na2HPO4, and the tissues were homogenized manually for 2 minutes. To 100 μl aliquot, 50 μL β-glucuronidase (5000 U/mL potassium phosphate buffer) was added. The mixture was vortex-mixed, and incubated (37° C., 20 hours) while shaking (750 rpm). The samples were then centrifuged (15 min, 7000 g, 4° C.). The supernatant was collected and partitioned with ethyl acetate (200 μL, twice). The ethyl acetate layers were combined, dried under a stream of nitrogen, and used for GC-MS analysis. Extraction of the prefrontal cortex (PFC) was performed in the same manner as the hippocampus; PFC tissues from three animals were combined and treated as one sample.
as §2

Structure (SMILES): COc1cc(/C=C/c2ccc(O)cc2)cc(OC)c1 [pterostilbene]
- locomotor activity (total number of photobeam interruptions per chamber) (Swiss Webster mice; 1-10 mg/kg by oral gavage, one-way ANOVA): no stimulant or depressive actions; also recorded: no significant effect
- sedating tendency in EPM and locomotor activity monitoring chambers (Swiss Webster mice; higher doses): did not show any sedating tendency
- locomotor activity (Swiss Webster mice; highest dose (10 mg/kg)): didn't have any effect
- spontaneous motor activity (Swiss Webster mice; maximal anxiolytic dose (2 mg/kg), post hoc comparison): not affected
- half-life [1]: approximately 2 hr
- Pterostilbene level in the pre-frontal cortex tissues [2]: trace levels
- Pterostilbene level in the plasma (± SD) ([3]; 1 mg/kg BW p.o.): 10.0887 ± 6.6699 ng/mL
- Pterostilbene level in the plasma (± SD) ([3]; 10 mg/kg BW p.o.): 130.2651 ± 40.2558 ng/mL
- concentration at 65 min ([3]; 1 mg/kg BW, 1 mg/kg BW p.o.): 10.1 ± 6.67 ng/mL
- concentration at 65 min ([3]; 2 mg/kg BW, 2 mg/kg BW p.o.): 27 ± 7.27 ng/mL
- concentration at 65 min ([3]; 5 mg/kg BW, 5 mg/kg BW p.o.): 72 ± 19 ng/mL
- concentration at 65 min ([3]; 10 mg/kg BW, 10 mg/kg BW p.o.): 130 ± 40.2 ng/mL
- Pterostilbene level in the hippocampus (± SD) ([4]; 2 mg/kg BW p.o.): 0.2627 ± 0.0230 ng/hippocampus
- Pterostilbene level in the hippocampus (± SD) ([4]; 5 mg/kg BW p.o.): 0.5314 ± 0.1830 ng/hippocampus
- Pterostilbene level in the hippocampus (± SD) ([4]; 10 mg/kg BW p.o.): 1.1217 ng/hippocampus and 1.1217 ± 0.1322 ng/hippocampus
- Pterostilbene level in the hippocampus ([4]; range over 2, 5 and 10 mg/kg doses): 0.2627-1.1217 ng/hippocampus
